Measurements reported in patent publication US20250032623A1, “HETEROBIFUNCTIONAL COMPOUNDS AND THEIR USE IN TREATING DISEASE” (HALDA THERAPEUTICS OPCO, INC., priority 2021, published 2025).
Read-outs that look alike come from different tables or passages of the source.

How the values were obtained:
HEK293 cells = assay: Cellular growth inhibition assay (CellTiter-Glo), HEK293 cells; format: cell-based; details: three days compound treatment, CellTiter-Glo 2.0, read-out: CTG HEK293 GI50
Method in brief: (§1)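 GI50 derived by four-parameter regression of luminescence (CellTiter-Glo 2.0) at Day 0 and Day 3, normalized to DMSO wells. Cells (HeLa, HEK293; 500/well, DMEM plus 10% FBS) were dosed with compound dilutions 24 h post-seeding and exposed for three days at 37 °C.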

KRAS G12C = molecular target: T1, KRAS G12C (Homo sapiens, UniProt P01116, G12C); assay: KRAS G12C nucleotide exchange assay (SOS1 mediated, HTRF); format: biochemical; details: 1 hr pre-incubation at RT, read-out: IC50 (inhibition of KRas G12C)
T1 construct: Kras (aa 2-169), GST; purchased Reaction Biology Corporation (RBC)
Method: Exemplary compounds were tested for ability to inhibit KRas G12C.
KRAS target engagement (IC50 determination) was performed using a KRAS G12C nucleotide exchange assay (Reaction Biology Corporation). Specifically, compounds were tested against KRAS G12C in 10-point concentration IC50 mode with 3-fold serial dilution at a starting concentration of 10 μM. ARS1620 was used as a control. Compounds were pre-incubated with protein for 1 hr at RT. Parameters for the assay were:
In the method, Kras was mixed with a-GST Tb antibody (1.5× solution) and […] was delivered to reaction wells. Compounds were delivered using acoustic dispenser (Echo, Labcyte). Kras/aGST-Tb Ab/compound mixture was incubated for 1 hour at room temperature. A 3× solution of SOS1 and GTP* was prepared in reaction buffer. A […] aliquot of SOS1/GTP* solution was added to reaction well to initiate the exchange reaction. No—SOS1 reaction or max compound concentration was used as blank. IC50 determination was performed using a Sigmoidal dose response (variable slope) equation.

HeLa cells = assay: Cellular growth inhibition assay (CellTiter-Glo), HeLa cells; format: cell-based; details: three days compound treatment, CellTiter-Glo 2.0, read-out: CTG HELA GI50
Method in brief: as §1

T1 sequence (P01116 2-169 isoform P01116-2 G12C): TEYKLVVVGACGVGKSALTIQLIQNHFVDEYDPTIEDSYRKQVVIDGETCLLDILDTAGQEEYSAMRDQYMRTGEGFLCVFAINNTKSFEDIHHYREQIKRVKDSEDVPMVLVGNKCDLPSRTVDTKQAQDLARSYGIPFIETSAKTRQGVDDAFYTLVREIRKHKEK

| Compound | GI50 (HEK293 cells; Homo sapiens, 72 h) | IC50 (KRAS G12C) | GI50 (HeLa cells; Homo sapiens, 72 h) | GI50 (HEK293 cells) | GI50 (HeLa cells) |
| --- | --- | --- | --- | --- | --- |
| CC[C@@H]1C(=O)N(C)c2cnc(Nc3ccc(C(=O)NCCOCCOC4CCN(C/C=C/C(=O)N5CCN(c6nc(OC[C@@H]7CCCN7C)nc7c6CCN(c6cccc8cccc(Cl)c68)C7)C[C@@H]5CC#N)CC4)cc3OC)nc2N1C1CCCC1 [Compound I-110, N-[2-[2-[[1-[(E)-4-[(2S)-4-[7-(8-chloro-1-naphthyl)-2-[[(2S)-1-methylpyrrolidin-2-yl]methoxy]-6,8-dihydro-5H-pyrido[3,4-d]pyrimidin-4-yl]-2-(cyanomethyl)piperazin-1-yl]-4-oxo-but-2-enyl]-4-piperidyl]oxy]ethoxy]ethyl]-4-[[(7R)-8-cyclopentyl-7-ethyl-5-methyl-6-oxo-7H-pteridin-2-yl]amino]-3-methoxy-benzamide] | 500 to 1500 nM | < 100 nM | 500 to 1500 nM |  |  |
| C=C(F)C(=O)N1CCN(c2nc(OC[C@@H]3CCCN3CCCN3CCN(CCNC(=O)c4ccc(Nc5ncc6c(n5)N(C5CCCC5)[C@H](CC)C(=O)N6C)c(OC)c4)CC3)nc3c2CCN(c2cccc4cccc(Cl)c24)C3)C[C@@H]1CC#N [Compound I-106, N-[2-[4-[3-[(2S)-2-[[7-(8-chloro-1-naphthyl)-4-[(3S)-3-(cyanomethyl)-4-(2-fluoroprop-2-enoyl)piperazin-1-yl]-6,8-dihydro-5H-pyrido[3,4-d]pyrimidin-2-yl]oxymethyl]pyrrolidin-1-yl]propyl]piperazin-1-yl]ethyl]-4-[[(7R)-8-cyclopentyl-7-ethyl-5-methyl-6-oxo-7H-pteridin-2-yl]amino]-3-methoxy-benzamide] | 500 to 1500 nM | < 100 nM | 500 to 1500 nM |  |  |
| C=C(F)C(=O)N1CCN(c2nc(OC[C@@H]3CCCN3CCCOCCOCCOc3ccc(CNc4cc(N5CCCC[C@H]5CCO)nc5c(CC)cnn45)cn3)nc3c2CCN(c2cccc4cccc(Cl)c24)C3)C[C@@H]1CC#N [Compound I-88, 2-[(2S)-4-[7-(8-chloro-1-naphthyl)-2-[[(2S)-1-[3-[2-[2-S[[5-[[[3-ethyl-5-[(2S)-2-(2-hydroxyethyl)-1-piperidyl]pyrazolo[1,5-a]pyrimidin-7-yl]amino]methyl]-2-pyridyl]oxy]ethoxy]ethoxy]propyl]pyrrolidin-2-yl]methoxy]-6,8-dihydro-5H-pyrido[3,4-d]pyrimidin-4-yl]-1-(2-fluoroprop-2-enoyl)piperazin-2-yl]acetonitrile] | 500 to 1500 nM | < 100 nM | 500 to 1500 nM |  |  |
| CCc1cnn2c(NCc3ccc(OCCOCCOCCN(C)C/C=C/C(=O)N4CCN(c5nc(OC[C@@H]6CCCN6C)nc6c5CCN(c5cccc7cccc(Cl)c57)C6)C[C@@H]4CC#N)nc3)cc(N3CCCC[C@H]3CCO)nc12 [Compound I-89] | 500 to 1500 nM | < 100 nM | < 500 nM |  |  |
| CC[C@@H]1C(=O)N(C)c2cnc(Nc3ccc(C(=O)NCCOCCOCCN(C)C/C=C/C(=O)N4CCN(c5nc(OC[C@@H]6CCCN6C)nc6c5CCN(c5cccc7cccc(Cl)c57)C6)C[C@@H]4CC#N)cc3OC)nc2N1C1CCCC1 [Compound I-107, N-[2-[2-[2-[[(E)-4-[(2S)-4-[7-(8-chloro-1-naphthyl)-2-[[(2S)-1-methylpyrrolidin-2-yl]methoxy]-6,8-dihydro-SH-pyrido[3,4-d]pyrimidin-4-yl]-2-(cyanomethyl)piperazin-1-yl]-4-oxo-but-2-enyl]-methyl-amino]ethoxy]ethoxy]ethyl]-4-[[(7R)-8-cyclopentyl-7-ethyl-5-methyl-6-oxo-7H-pteridin-2-yl]amino]-3-methoxy-benzamide] | < 500 nM | < 100 nM | < 500 nM |  |  |
| C=C(F)C(=O)N1CCN(c2nc(OC[C@@H]3CCCN3CCCOCCOCCOCCOCCOCCOCCOCCOCCN(C)C(=O)N3N=C(c4cc(F)ccc4F)S[C@@]3(CCCN)c3ccccc3)nc3c2CCN(c2cccc4cccc(Cl)c24)C3)C[C@@H]1CC#N [Compound I-101] |  | < 100 nM |  | 1500 to 5000 nM | 1500 to 5000 nM |
| CCc1cnn2c(NCc3ccc(OCCOCCOCCOCCOCCOCCOCCOC/C=C/C(=O)N4CCN(c5nc(OC[C@@H]6CCCN6C)nc6c5CCN(c5cccc7cccc(Cl)c57)C6)C[C@@H]4CC#N)nc3)cc(N3CCCC[C@H]3CCO)nc12 [Compound I-95] | 1500 to 5000 nM | 1000 to 5000 nM | > 5000 nM |  |  |
| C=C(F)C(=O)N1CCN(c2nc(OC[C@@H]3CCCN3CCCOCCOCCN(C)C(=O)N3N=C(c4cc(F)ccc4F)SC3(CCCN)c3ccccc3)nc3c2CCN(c2cccc4cccc(Cl)c24)C3)C[C@@H]1CC#N (stereo partly drawn) [Compound I-99, 2-(3-aminopropyl)-N-[2-[2-[3-[(2S)-2-[[7-(8-chloro-1-naphthyl)-4-[(3S)-3-(cyanomethyl)-4-(2-fluoroprop-2-enoyl)piperazin-1-yl]-6,8-dihydro-5H-pyrido[3,4-d]pyrimidin-2-yl]oxymethyl]pyrrolidin-1-yl]propoxy]ethoxy]ethyl]-5-(2,5-difluorophenyl)-N-methyl-2-phenyl-1,3,4-thiadiazole-3-carboxamide] | 1500 to 5000 nM | < 100 nM | 500 to 1500 nM |  |  |
| CCc1cnn2c(NCc3ccc(OCCN(C)C/C=C/C(=O)N4CCN(c5nc(OC[C@@H]6CCCN6C)nc6c5CCN(c5cccc7cccc(Cl)c57)C6)C[C@@H]4CC#N)nc3)cc(N3CCCC[C@H]3CCO)nc12 [Compound I-91, 2-[(2S)-4-[7-(8-chloro-1-naphthyl)-2-[[(2S)-1-methylpyrrolidin-2-yl]methoxy]-6,8-dihydro-5H-pyrido[3,4-d]pyrimidin-4-yl]-1-[(E)-4-[2-[[5-[[[3-ethyl-5-[(2S)-2-(2-hydroxyethyl)-1-piperidyl]pyrazolo [1,5-a]pyrimidin-7-yl]amino]methyl]-2-pyridyl]oxy]ethyl-methyl-amino]but-2-enoyl]piperazin-2-yl]acetonitrile] | < 500 nM | < 100 nM | < 500 nM |  |  |
| C=C(F)C(=O)N1CCN(c2nc(OC[C@@H]3CCCN3CCCOCCOCCOCCOCCN(C)C(=O)N3N=C(c4cc(F)ccc4F)S[C@@]3(CCCN)c3ccccc3)nc3c2CCN(c2cccc4cccc(Cl)c24)C3)C[C@@H]1CC#N [Compound I-98, 2-(3-aminopropyl)-N-[2-[2-[2-[2-[3-[(2S)-2-[[7-(8-chloro-1-naphthyl)-4-[(3S)-3-(cyanomethyl)-4-(2-fluoroprop-2-enoyl)piperazin-1-yl]-6,8-dihydro-5H-pyrido[3,4-d]pyrimidin-2-yl]oxymethyl]pyrrolidin-1-yl]propoxy]ethoxy]ethoxy]ethoxy]ethyl]-5-(2,5-difluorophenyl)-N-methyl-2-phenyl-1,3,4-thiadiazole-3-carboxamide] | 1500 to 5000 nM | < 100 nM | 500 to 1500 nM |  |  |
| CC[C@@H]1C(=O)N(C)c2cnc(Nc3ccc(C(=O)NCCOCCN4CCN(C/C=C/C(=O)N5CCN(c6nc(OC[C@@H]7CCCN7C)nc7c6CCN(c6cccc8cccc(Cl)c68)C7)C[C@@H]5CC#N)CC4)cc3OC)nc2N1C1CCCC1 [Compound I-82] | < 500 nM | < 100 nM | < 500 nM |  |  |
| C=C(F)C(=O)N1CCN(c2nc(OC[C@@H]3CCCN3CCCOCCOCCn3cc(CNc4cc(N5CCCC[C@H]5CCO)nc5c(CC)cnn45)ccc3=O)nc3c2CCN(c2cccc4cccc(Cl)c24)C3)C[C@@H]1CC#N [Compound I-87, 2-[(2S)-4-[7-(8-chloro-1-naphthyl)-2-[[(2S)-1-[3-[2-[2-[5-[[[3-ethyl-5-[(2S)-2-(2-hydroxyethyl)-1-piperidyl]pyrazolo[1,5-a]pyrimidin-7-yl]amino]methyl]-2-oxo-1-pyridyl]ethoxy]ethoxy]propyl]pyrrolidin-2-yl]methoxy]-6,8-dihydro-5H-pyrido[3,4-d]pyrimidin-4-yl]-1-(2-fluoroprop-2-enoyl)piperazin-2-yl]acetonitrile] | 500 to 1500 nM | < 100 nM | 500 to 1500 nM |  |  |
| C=C(F)C(=O)N1CCN(c2nc(OC[C@@H]3CCCN3CCCOCCOCCOCCOCCOCCOCCN(C)C(=O)N3N=C(c4cc(F)ccc4F)S[C@@]3(CCCN)c3ccccc3)nc3c2CCN(c2cccc4cccc(Cl)c24)C3)C[C@@H]1CC#N [Compound I-100, (2S)-2-(3-aminopropyl)-N-[2-[22[2-[2-[2-[2-[3-[(2S)-2-[[7-(8-chloro-1-naphthyl)-4-[(3S)-3-(cyanomethyl)-4-(2-fluoroprop-2-enoyl)piperazin-1-yl]-6,8-dihydro-5H-pyrido[3,4-d]pyrimidin-2-yl]oxymethyl]pyrrolidin-1-yl]propoxy]ethoxy]ethoxy]ethoxy]ethoxy]ethoxy]ethyl]-5-(2,5-difluorophenyl)-N-methyl-2-phenyl-1,3,4-thiadiazole-3-carboxamide] | > 5000 nM | < 100 nM | 1500 to 5000 nM |  |  |
